The values below come from PMC5217682, “Galactomannan Catabolism Conferred by a Polysaccharide Utilization Locus of Bacteroides ovatus” (The Journal of Biological Chemistry, 2016).

This assay deals with T1, BoMan26B (Bacteroides ovatus, UniProt A0ABU3IS29).
T1 construct: gene RO706_12620; residues 1-19 (lipoprotein signal) deleted; His tag kept; expressed in E. coli BL21(DE3); 347 residues, 39,870 Da with tag
T1 sequence (A0ABU3IS29 20-360): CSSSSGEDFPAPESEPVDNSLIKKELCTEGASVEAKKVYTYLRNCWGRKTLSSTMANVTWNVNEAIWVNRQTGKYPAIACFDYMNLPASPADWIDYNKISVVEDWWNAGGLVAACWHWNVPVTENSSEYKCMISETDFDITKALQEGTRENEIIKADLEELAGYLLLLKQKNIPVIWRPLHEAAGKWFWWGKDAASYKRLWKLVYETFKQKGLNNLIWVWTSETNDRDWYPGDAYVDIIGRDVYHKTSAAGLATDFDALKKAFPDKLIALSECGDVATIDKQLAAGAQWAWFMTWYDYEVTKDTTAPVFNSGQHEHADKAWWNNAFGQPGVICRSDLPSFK
The experiment in a line: hydrolysis by HPAEC-PAD. It counts as biochemical. Conditions: […] substrate, […] potassium phosphate pH […] °C.

With `OC[C@H]1O[C@@H](O[C@H]2[C@H](O)[C@H](O)[C@H](O[C@H]3[C@H](O)[C@H](O)[C@H](O[C@H]4[C@H](O)[C@H](O)[C@H](O[C@H]5[C@H](O)[C@H](O)C(O)O[C@@H]5CO)O[C@@H]4CO)O[C@@H]3CO)O[C@@H]2CO)[C@@H](O)[C@@H](O)[C@@H]1O` (stereo partly shown) [M5, mannopentaose], the “hydrolysis by HPAEC-PAD” value is “it hydrolyzed all tested manno oligo- and polysaccharides (M3–M6”.
